Measurements as given in ChEMBL document CHEMBL1201862, “PubChem BioAssay data set” (2004).
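Following 48 hours of exposure in 96-well plates, responses at five concentrations were used to interpolate endpoints linearly. Abbreviation: GI50, concentration required for 50% inhibition of growth.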 Active and inactive are the calls of the source. Rule as the data show it: active = GI50 up to about 1.1 µM and inactive = higher.

Legend:
Assay in all cases: growth of human tumour cells (NCI), 48 h
[1] = tested on: A549
[2] = tested on: EKVX
[3] = tested on: HL-60
[4] = tested on: M19-MEL
[5] = tested on: OVCAR-5
[6] = tested on: OVCAR-8
[7] = tested on: SF-268
[8] = tested on: SF-295
[9] = tested on: SF-539
[10] = tested on: SK-MEL-5
[11] = tested on: SN12C
[12] = tested on: SNB-19
[13] = tested on: SNB-75
[14] = tested on: U-251
[15] = tested on: UACC-62
[16] = tested on: SK-MEL-2
[17] = tested on: XF498
[18] = tested on: BT-549
[19] = tested on: MDA-MB-435
[20] = tested on: PC-3

Measured: GI50

O=C1CC2C=CC1C2CO (stereo not given)
inactive: [1] > 100 µM | [2] > 100 µM | [3] > 100 µM | [4] > 100 µM | [5] > 100 µM | [6] > 100 µM | [7] > 100 µM | [8] > 100 µM | [9] > 100 µM | [10] > 100 µM | [11] > 100 µM | [12] > 100 µM | [13] > 100 µM | [14] > 100 µM | [15] > 100 µM

O=S1(=O)CCCS(=O)(=O)C(c2ccccc2)=C1c1ccccc1
inactive: [1] 42.3 µM | [2] > 100 µM | [3] 18.6 µM | [4] 70.5 µM | [5] > 100 µM | [6] 91.6 µM | [7] > 100 µM | [8] > 10 µM | [9] > 100 µM | [16] 42.6 µM | [10] 52.8 µM | [11] 29.4 µM | [13] 27.5 µM | [14] 92.7 µM | [15] 29 µM

O=[PH](O)c1cccnc1
inactive: [1] > 100 µM | [2] > 100 µM | [3] > 100 µM | [4] > 100 µM | [5] > 100 µM | [6] > 100 µM | [7] > 100 µM | [8] > 100 µM | [9] > 100 µM | [10] > 100 µM | [11] > 100 µM | [12] > 100 µM | [13] > 100 µM | [14] > 100 µM | [15] > 100 µM | [17] > 100 µM

Cc1cc(Cl)ccc1N1C(=O)C(=O)C(c2nc3ccccc3s2)C(=O)C1=O
inactive: [1] > 100 µM | [2] > 100 µM | [3] > 100 µM | [5] > 100 µM | [6] > 100 µM | [7] > 100 µM | [8] > 100 µM | [9] > 100 µM | [16] > 100 µM | [10] > 100 µM | [11] > 100 µM | [12] > 100 µM | [13] > 100 µM | [14] > 100 µM | [15] > 100 µM | [17] > 100 µM

NC1=NN(c2ccccc2)C(=O)C1C(=O)C(=O)NC1C2CC3CC(C2)CC1C3 (stereo not given)
inactive: [1] > 100 µM | [2] > 100 µM | [3] > 100 µM | [4] > 100 µM | [5] > 100 µM | [6] > 100 µM | [7] > 100 µM | [8] > 100 µM | [9] > 100 µM | [16] > 100 µM | [10] > 100 µM | [11] > 100 µM | [12] > 100 µM | [14] > 100 µM | [15] > 100 µM

C/C(=N\NC(=O)CC(=O)N(C(=O)c1ccc(Cl)cc1)c1ccc(C)cc1)c1ccccc1O
inactive: [1] 35.6 µM | [2] 6.79 µM | [4] > 100 µM | [5] > 100 µM | [6] 18.7 µM | [7] 28.1 µM | [8] 7.33 µM | [9] 43.4 µM | [16] > 100 µM | [10] > 100 µM | [11] > 100 µM | [12] 59.4 µM | [13] 18.2 µM | [14] 19.6 µM | [15] > 100 µM | [17] > 100 µM

COc1cc(/C=C(\NC(=O)c2ccccc2)c2nc3ccc4c(c3[nH]2)C(=O)c2ccccc2C4=O)cc(OC)c1OC
inactive: [1] 21.4 µM | [2] 44 µM | [4] > 100 µM | [5] > 100 µM | [6] 41.6 µM | [7] 8.91 µM | [8] 55.7 µM | [9] 20.1 µM | [16] 50.5 µM | [10] 35 µM | [11] 32.5 µM | [12] 99.1 µM | [13] 22.9 µM | [14] 31.9 µM | [15] 38.1 µM | [17] > 100 µM

COC1CC(Br)(C#N)C1 (stereo not given)
inactive: [1] > 100 µM | [2] > 100 µM | [3] > 100 µM | [4] > 100 µM | [5] > 100 µM | [6] > 100 µM | [7] > 100 µM | [8] > 100 µM | [9] > 100 µM | [16] > 100 µM | [10] > 100 µM | [14] > 100 µM | [15] > 100 µM

CN(C)Cc1[nH]c2ccccc2c1C(=O)c1ccccc1
inactive: [1] > 100 µM | [3] 86.9 µM | [5] > 100 µM | [6] > 100 µM | [7] > 100 µM | [8] > 100 µM | [9] > 100 µM | [16] > 100 µM | [10] 58.1 µM | [12] > 100 µM | [13] 21.9 µM | [14] > 100 µM | [15] > 100 µM | [17] 97.9 µM

O=C1C=C(Nc2ccc(S(=O)(=O)Nc3nccs3)cc2)c2ccccc2C1=O
inactive: [1] > 100 µM | [18] 20.7 µM | [2] 26.4 µM | [3] 24.7 µM | [19] 17.7 µM | [5] 17.5 µM | [6] 23.1 µM | [20] 71.4 µM | [7] 27.1 µM | [8] 18 µM | [9] 21.1 µM | [16] 28.6 µM | [10] 19.9 µM | [11] 24.6 µM | [12] 29.4 µM | [13] 21.5 µM | [14] 21.6 µM | [15] 24.5 µM

O=C1C(C(c2ccccc2)N2CCOCC2)=C(O)C(c2ccccc2)N1c1ccccc1 (stereo not given)
inactive: [1] > 10 µM | [18] > 10 µM | [2] > 10 µM | [3] > 10 µM | [19] > 10 µM | [5] > 10 µM | [6] > 10 µM | [20] > 10 µM | [7] > 10 µM | [8] > 10 µM | [9] > 10 µM | [16] > 10 µM | [10] > 10 µM | [11] > 10 µM | [12] > 10 µM | [13] 3.58 µM | [14] > 10 µM | [15] > 10 µM

COC(=O)c1c2c(cc3c1CC1(Cc4cc5c(c(C(C)=O)c4C1)CCC5)C3)CCC2 (stereo not given)
inactive: [1] 27.5 µM | [3] 11.8 µM | [4] > 100 µM | [5] > 100 µM | [6] 54.5 µM | [7] 67.3 µM | [8] 28.8 µM | [9] 34.6 µM | [10] 31.8 µM | [11] 91.8 µM | [12] 58.3 µM | [13] 24.6 µM | [14] 78.3 µM | [15] 44.9 µM | [17] 31.3 µM

CCOC(=O)CCC(NC(=O)c1ccc(Nc2nc3ccccc3nc2-c2cccs2)cc1)C(=O)OCC (stereo not given)
inactive: [1] 63.2 µM | [18] 23.6 µM | [2] 31.6 µM | [3] 5.21 µM | [19] 30.2 µM | [5] > 100 µM | [6] 20.8 µM | [20] 38.5 µM | [7] 27.1 µM | [8] 19.4 µM | [9] 32.7 µM | [16] 31.2 µM | [10] 15.2 µM | [11] 22.1 µM | [12] 29.2 µM | [13] 36.3 µM | [14] 27.4 µM | [15] 23.7 µM
